This is an account of results in patent US20210308289A1, “INACTIVATION OF HIGHLY RESISTANT INFECTIOUS MICROBES AND PROTEINS WITH UNBUFFERED HYPOHALOUS ACID COMPOSITIONS” (BRIOTECH, INC., priority 2016, published 2021).

The subject of data set [1] is spores of Bacillus subtilis. Briefly: Inactivation of Bacillus subtilis spores by HOBr and HOCl. The class given is cell-based.
The test system of another data set is infectious proteins. Type of data set: biochemical.
For data set [2] the following is noted: in solution; cited from earlier work.
The nature of data set [3]: Application to human skin and mucous membranes. The following applies: freshly prepared from HOCl containing 200 ppm of Cl.

Compound `OBr` [HOBr, hypobromous acid] displayed an LRV in data set [1] (HOBr approximately 25 ppm, 20 seconds) of 6. Also, the “inactivation of infectious proteins” value in the data set on infectious proteins is given as “comparable levels to those achieved using HOCl”. Also, the pKa result in data set [2] is “higher than HOCl”. The “adverse effects on epithelial surfaces” value in data set [3] is listed as “without any indication of adverse effects”.
Turning to `OCl` [HOCl, hypochlorous acid], in data set [1] (HOCl 25 ppm, 20 seconds of contact), the “effect on Bacillus spores” value was “no detectable effect”. Besides, in data set [1] (HOCl 230 ppm, 20 seconds), the LRV worked out at 6. The LRVs in data set [1] (HOCl below 230 ppm, 20 seconds) is 2-4. In addition, in data set [2], the pKa result is recorded as “about 7.5”.
